According to patent US20110009403A1, “2-MORPHOLINYLPURINES AS INHIBITORS OF PI3K” (S*BIO Pte Ltd., priority 2007, published 2011):

How the values were obtained:
[1] = biological target: T1, PI3K p110α/p85 (Homo sapiens, UniProt P42336); assay: PI3K assay ([γ33P]ATP, PtdIns/PtdSer coated plates); format: biochemical; conditions: 2 μM ATP, 1 hour at RT; read-out: IC50 (PI3Kα)
T1 construct: made in house
Description: Recombinant PI3K p110α/p85 was prepared in-house. Phosphatidylinositol (PtdIns), phosphotidylserine (PtdSer) and all other unspecified chemicals were purchased from Sigma-Aldrich. [γ^33P]ATP and Optiphase scintillant were obtained from Perkin Elmer.
Assays were performed in a final assay volume of 25 μL in 384-well Maxisorp plates (Nunc). Compounds were tested at 8 concentrations in 3-fold serial dilution, generally starting from 10 μM. Maxisorp plates were coated with 20 μL/well of a 1:1 mixture of PtdIns and PtdSer [0.1 mg/mL each dissolved in chloroform:ethanol (3:7)] and left overnight in a fume hood at room temperature (RT) to dry.
The enzyme reaction was created by pipetting 5 μL/well of compound (in 2.5% DMSO), 10 μL/well of enzyme (0.5 μg/mL p110α+1 μg/mL p85), and 10 μL/well of 5 μM ATP with 5 μCi/mL [γ^33P]ATP in assay buffer (final concentrations: 0.2 μg/mL p110α, 2 μM ATP, […] [γ^33P]ATP in 1× assay buffer: 100 mM Tris-HCl pH 7.0, 200 mM NaCl, 8 mM MgCl2). The reaction was incubated for 1 hour at RT and terminated with 30 μL/well of 50 mM EDTA solution. The plate was then washed twice with TBS, dried, and added with 30 μL/well of scintillant before it was counted in a MicroBeta Trilux.

[2] = biological target: mTOR (Homo sapiens, UniProt P42345); assay: mTOR assay (phosphorylation of 4eBP1, [γ33P]-ATP filter plate); format: biochemical; conditions: 10 μM ATP, 1 hour at room temperature
mTOR, sequence (P42345 1382-2549 limits assumed): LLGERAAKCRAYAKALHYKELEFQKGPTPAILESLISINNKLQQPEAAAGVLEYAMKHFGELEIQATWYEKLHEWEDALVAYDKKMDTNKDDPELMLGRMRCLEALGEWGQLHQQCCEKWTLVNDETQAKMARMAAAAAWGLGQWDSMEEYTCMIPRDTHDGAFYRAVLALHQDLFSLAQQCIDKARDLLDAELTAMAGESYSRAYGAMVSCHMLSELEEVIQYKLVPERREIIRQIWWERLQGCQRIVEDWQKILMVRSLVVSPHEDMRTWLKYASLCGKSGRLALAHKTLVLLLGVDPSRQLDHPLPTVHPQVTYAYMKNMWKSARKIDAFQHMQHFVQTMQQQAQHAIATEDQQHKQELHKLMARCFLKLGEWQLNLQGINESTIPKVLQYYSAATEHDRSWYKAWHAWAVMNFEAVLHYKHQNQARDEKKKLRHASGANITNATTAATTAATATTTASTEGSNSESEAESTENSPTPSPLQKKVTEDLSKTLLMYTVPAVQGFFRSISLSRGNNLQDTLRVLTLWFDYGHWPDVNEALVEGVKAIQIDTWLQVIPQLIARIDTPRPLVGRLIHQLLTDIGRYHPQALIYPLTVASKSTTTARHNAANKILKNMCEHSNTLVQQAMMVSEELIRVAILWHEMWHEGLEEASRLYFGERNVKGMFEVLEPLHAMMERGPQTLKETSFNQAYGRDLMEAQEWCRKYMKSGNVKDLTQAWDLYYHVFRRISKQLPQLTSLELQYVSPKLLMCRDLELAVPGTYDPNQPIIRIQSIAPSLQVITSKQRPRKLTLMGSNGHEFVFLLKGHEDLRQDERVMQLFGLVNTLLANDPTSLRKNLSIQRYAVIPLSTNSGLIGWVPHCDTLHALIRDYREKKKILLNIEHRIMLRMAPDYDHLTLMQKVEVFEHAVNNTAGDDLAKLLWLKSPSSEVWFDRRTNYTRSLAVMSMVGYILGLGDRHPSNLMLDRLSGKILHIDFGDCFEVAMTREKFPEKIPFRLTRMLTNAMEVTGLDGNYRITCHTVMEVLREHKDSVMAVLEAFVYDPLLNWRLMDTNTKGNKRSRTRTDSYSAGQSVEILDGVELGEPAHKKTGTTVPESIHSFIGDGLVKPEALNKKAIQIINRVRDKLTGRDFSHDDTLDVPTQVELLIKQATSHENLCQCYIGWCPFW
Description: Truncated mTOR kinase and His-tagged 4eBP1 were produced in-house. [γ^33P]-ATP was purchased from Amersham (GE Healthcare). All chemicals, unless otherwise stated, were from Sigma-Aldrich.
Phosphorylation assays were initially performed in a final volume of 20 μL in 384-well polypropylene plate (Greiner). Compounds were typically tested over the range from 100 μM to 0.006 μM, in 8 step dilutions, in duplicate. 10 μL/well of 2× Enzyme-Substrate solution (1.5 μg/mL mTOR, 40 μg/mL 4eBP1 in 1× assay buffer: 10 mM Hepes pH 7.5, 50 mM NaCl and 10 mM MnCl2) were first added to the sample plate containing 1 μL/well of test compound in neat DMSO. The reaction was initiated by adding 10 μL/well of 20 μM ATP solution (final assay concentration 10 μM ATP and 0.4 μCi/well of [γ^33P]-ATP). After 1 hour incubation at room temperature, the reaction was terminated with 40 μL/well of 20 mM EDTA/1 mM ATP solution.
50 μL/well of the stopped reaction mix was then transferred to 384-well MultiScreenHTS-PH filter plate (Millipore) pre-added with 50 μL/well of 1% phosphoric acid. The plate was washed 4 times with 120 μL/well of 0.5% phosphoric acid via vacuum filtration. Finally, 10 μL/well of Optiphase™ SuperMix liquid scintillation cocktail (Perkin Elmer) was added. After minimum 1 hour of incubation, counting was performed in a Wallac MicroBeta TriLux scintillation counter using coincidence counting mode with crosstalk correction.

T1 sequence (P42336 whole entry): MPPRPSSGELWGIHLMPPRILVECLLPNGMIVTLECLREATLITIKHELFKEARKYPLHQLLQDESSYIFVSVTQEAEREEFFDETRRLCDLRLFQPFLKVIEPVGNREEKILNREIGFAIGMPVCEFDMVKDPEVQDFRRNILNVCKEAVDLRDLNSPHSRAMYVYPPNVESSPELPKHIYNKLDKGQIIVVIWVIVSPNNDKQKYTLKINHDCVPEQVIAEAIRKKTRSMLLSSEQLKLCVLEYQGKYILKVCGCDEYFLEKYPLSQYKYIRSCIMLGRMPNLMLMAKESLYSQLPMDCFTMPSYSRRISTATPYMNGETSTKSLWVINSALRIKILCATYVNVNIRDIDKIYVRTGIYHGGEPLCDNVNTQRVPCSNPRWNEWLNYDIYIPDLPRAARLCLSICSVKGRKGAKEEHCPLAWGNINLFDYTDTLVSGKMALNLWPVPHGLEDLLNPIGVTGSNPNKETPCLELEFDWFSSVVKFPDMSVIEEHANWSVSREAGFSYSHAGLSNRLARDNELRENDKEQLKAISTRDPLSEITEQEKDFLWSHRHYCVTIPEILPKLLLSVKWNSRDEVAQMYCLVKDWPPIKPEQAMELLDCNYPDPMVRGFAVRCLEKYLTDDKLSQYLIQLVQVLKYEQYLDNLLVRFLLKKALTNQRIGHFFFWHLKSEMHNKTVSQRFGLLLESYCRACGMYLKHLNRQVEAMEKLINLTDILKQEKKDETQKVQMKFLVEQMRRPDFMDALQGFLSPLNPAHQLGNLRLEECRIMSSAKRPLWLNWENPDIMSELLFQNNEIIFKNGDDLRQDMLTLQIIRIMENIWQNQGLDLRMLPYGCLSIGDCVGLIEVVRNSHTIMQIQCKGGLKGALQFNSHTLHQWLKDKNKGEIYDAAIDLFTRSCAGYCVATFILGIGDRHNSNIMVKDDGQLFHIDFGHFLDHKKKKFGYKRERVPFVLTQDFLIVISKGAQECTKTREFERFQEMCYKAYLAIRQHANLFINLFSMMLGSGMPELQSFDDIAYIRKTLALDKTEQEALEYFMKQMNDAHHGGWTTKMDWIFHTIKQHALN
T1 sequence (P27986 whole entry partner): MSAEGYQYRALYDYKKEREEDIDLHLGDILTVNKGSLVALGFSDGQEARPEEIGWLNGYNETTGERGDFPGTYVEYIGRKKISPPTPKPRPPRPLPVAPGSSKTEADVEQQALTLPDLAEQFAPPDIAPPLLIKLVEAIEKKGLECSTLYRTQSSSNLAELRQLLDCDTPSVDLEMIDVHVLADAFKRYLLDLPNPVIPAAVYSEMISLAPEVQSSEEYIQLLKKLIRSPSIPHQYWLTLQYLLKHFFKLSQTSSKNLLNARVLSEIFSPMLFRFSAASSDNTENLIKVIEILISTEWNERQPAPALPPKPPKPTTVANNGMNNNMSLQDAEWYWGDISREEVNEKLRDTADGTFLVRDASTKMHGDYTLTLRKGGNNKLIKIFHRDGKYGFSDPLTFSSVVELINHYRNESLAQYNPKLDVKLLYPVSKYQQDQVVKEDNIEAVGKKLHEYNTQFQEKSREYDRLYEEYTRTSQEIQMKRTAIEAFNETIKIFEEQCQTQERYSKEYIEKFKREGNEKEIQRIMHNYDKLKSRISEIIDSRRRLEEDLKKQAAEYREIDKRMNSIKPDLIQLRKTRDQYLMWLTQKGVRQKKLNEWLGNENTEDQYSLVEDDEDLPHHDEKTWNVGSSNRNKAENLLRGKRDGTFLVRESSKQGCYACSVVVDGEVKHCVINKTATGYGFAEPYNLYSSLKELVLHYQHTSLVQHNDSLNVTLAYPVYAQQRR

SMILES | IC50 [1] [nM] | IC50 [2] [nM]
OCc1cccc(-c2nc(N3CCOCC3)nc3c2ncn3Cc2ccccc2)c1 [Compound 1] | < 1000 | 1000 to 5000
Oc1cc(F)cc(-c2nc(N3CCOCC3)nc3c2ncn3Cc2ccccc2)c1 [Compound 3] | < 1000 | < 1000
CC(=O)Nc1cccc(-c2nc(N3CCOCC3)nc3c2ncn3Cc2ccccc2)c1 [Compound 4] | > 5000 | > 5000
Oc1ccc(-c2nc(N3CCOCC3)nc3c2ncn3Cc2ccccc2)cc1 [Compound 5] | > 5000 | 1000 to 5000
c1ccc(Cn2cnc3c(-c4ccc5cc[nH]c5c4)nc(N4CCOCC4)nc32)cc1 [Compound 6] | > 5000 | > 5000
Oc1cccc(-c2nc(N3CCOCC3)nc3c2ncn3Cc2c(F)cccc2F)c1 [Compound 7] | < 1000 | < 1000
N#Cc1cccc(Cn2cnc3c(-c4cccc(O)c4)nc(N4CCOCC4)nc32)c1 [Compound 9] | < 1000 | < 1000
COCCn1cnc2c(-c3ccc4cc[nH]c4c3)nc(N3CCOCC3)nc21 [Compound 10, 6-(1H-Indol-6-yl)-9-(2-methoxy-ethyl)-2-morpholin-4-yl-9H-purine] | > 5000 | 1000 to 5000
COCCn1cnc2c(-c3cccc(O)c3)nc(N3CCOCC3)nc21 [Compound 11, 3-[9-(2-Methoxy-ethyl)-2-morpholin-4-yl-9H-purin-6-yl]-phenol] | < 1000 | < 1000
Oc1cccc(-c2nc(N3CCOCC3)nc3c2ncn3Cc2cccc(OC(F)(F)F)c2)c1 [Compound 12] | > 5000 | 1000 to 5000
COC(=O)c1ccc(Cn2cnc3c(-c4cccc(O)c4)nc(N4CCOCC4)nc32)cc1 [Compound 13] | < 1000 | 1000 to 5000
COc1cc(Cn2cnc3c(-c4cccc(O)c4)nc(N4CCOCC4)nc32)cc(OC)c1 [Compound 14] | < 1000 | < 1000
Oc1cccc(-c2nc(N3CCOCC3)nc3c2ncn3Cc2cccc(F)c2)c1 [Compound 15] | < 1000 | < 1000
COc1cccc(Cn2cnc3c(-c4cccc(O)c4)nc(N4CCOCC4)nc32)c1 [Compound 17] | < 1000 | < 1000
COc1cccc(Cn2cnc3c(-c4ccc5cc[nH]c5c4)nc(N4CCOCC4)nc32)c1 [Compound 18] | > 5000 | 1000 to 5000
O=[N+]([O-])c1ccc(Cn2cnc3c(-c4cccc(O)c4)nc(N4CCOCC4)nc32)cc1 [Compound 19, 3-[2-Morpholin-4-yl-9-(4-nitro-benzyl)-9H-purin-6-yl]-phenol] | < 1000 | < 1000
Nc1ccc(Cn2cnc3c(-c4cccc(O)c4)nc(N4CCOCC4)nc32)cc1 [Compound 20, 3-[9-(4-Amino-benzyl)-2-morpholin-4-yl-9H-purin-6-yl]-phenol] | < 1000 | < 1000
c1cc2ccc(-c3nc(N4CCOCC4)nc4c3ncn4CC3CC3)cc2[nH]1 [Compound 21] | > 5000 | < 1000
C=CCCn1cnc2c(-c3ccc4cc[nH]c4c3)nc(N3CCOCC3)nc21 [Compound 23] | > 5000 | 1000 to 5000
CCOC(=O)CCn1cnc2c(-c3cccc(O)c3)nc(N3CCOCC3)nc21 [Compound 24] |  | < 1000
CCOC(=O)CCn1cnc2c(-c3ccc4cc[nH]c4c3)nc(N3CCOCC3)nc21 [Compound 25] |  | 1000 to 5000
O=C(CCN1CCCCC1)Nc1ccc(Cn2cnc3c(-c4cccc(O)c4)nc(N4CCOCC4)nc32)cc1 [Compound 26, N-{4-[6-(3-Hydroxy-phenyl)-2-morpholin-4-yl-purin-9-ylmethyl]-phenyl}-3-piperidin-1-yl-propionamide] | < 1000 | 1000 to 5000
c1ccc(Cn2cnc3c(-c4ccc5nc[nH]c5c4)nc(N4CCOCC4)nc32)cc1 [Compound 28] | 1000 to 5000 | 1000 to 5000
Nc1cccc(-c2nc(N3CCOCC3)nc3c2ncn3Cc2ccccc2)c1 [Compound 29] | > 5000 | 1000 to 5000
Oc1cccc(-c2nc(N3CCOCC3)nc3c2ncn3Cc2ccc(C(F)(F)F)cc2)c1 [Compound 30] | 1000 to 5000 | 1000 to 5000
O=[N+]([O-])c1cccc(Cn2cnc3c(-c4cccc(O)c4)nc(N4CCOCC4)nc32)c1 [Compound 31] | < 1000 | < 1000

SMILES | IC50 [1] [nM] | IC50 [2] [nM]
CC(=O)Nc1ccc(Cn2cnc3c(-c4cccc(O)c4)nc(N4CCOCC4)nc32)cc1 [Compound 32] | < 1000 | 1000 to 5000
CC(=O)Nc1ccc(Cn2cnc3c(-c4cccc(OC(C)=O)c4)nc(N4CCOCC4)nc32)cc1 [Compound 33] | < 1000 | > 5000
CCNc1ccc(Cn2cnc3c(-c4cccc(O)c4)nc(N4CCOCC4)nc32)cc1 [Compound 34] | < 1000 | 1000 to 5000
Oc1cccc(-c2nc(N3CCOCC3)nc3c2ncn3Cc2cc(F)cc(F)c2)c1 [Compound 37] | < 1000 | < 1000
Nc1ccc(-c2nc(N3CCOCC3)nc3c2ncn3Cc2ccccc2)cc1N [Compound 38] | > 5000 | 1000 to 5000
c1ccc(Cn2cnc3c(-c4ccc5nn[nH]c5c4)nc(N4CCOCC4)nc32)cc1 [Compound 39] | 1000 to 5000 | 1000 to 5000
O=c1[nH]c2ccc(-c3nc(N4CCOCC4)nc4c3ncn4Cc3ccccc3)cc2[nH]1 [Compound 40] | > 5000 | > 5000
Nc1cccc(Cn2cnc3c(-c4cccc(O)c4)nc(N4CCOCC4)nc32)c1 [Compound 41] | < 1000 | < 1000
CS(=O)(=O)Nc1ccc(Cn2cnc3c(-c4cccc(O)c4)nc(N4CCOCC4)nc32)cc1 [Compound 42] | < 1000 | 1000 to 5000
CS(=O)(=O)Nc1cccc(-c2nc(N3CCOCC3)nc3c2ncn3Cc2ccccc2)c1 [Compound 43] | > 5000 | > 5000
Oc1cccc(-c2nc(N3CCOCC3)nc3c2ncn3CCOc2ccccc2)c1 [Compound 44] | < 1000 | < 1000
Oc1cccc(-c2nc(N3CCOCC3)nc3c2ncn3C/C=C/c2ccccc2)c1 [Compound 45] |  | < 1000
Oc1cccc(-c2nc(N3CCOCC3)nc3c2ncn3Cc2ccc3ccccc3c2)c1 [Compound 46] |  | < 1000
Fc1cccc(Cn2cnc3c(-c4ccc5[nH]ccc5c4)nc(N4CCOCC4)nc32)c1 [Compound 47] | > 5000 | 1000 to 5000
Oc1cccc(-c2nc(N3CCOCC3)nc3[nH]cnc23)c1 [Compound 48] |  | 1000 to 5000
CC(=O)Nc1cccc(Cn2cnc3c(-c4cccc(O)c4)nc(N4CCOCC4)nc32)c1 [Compound 49] | < 1000 | 1000 to 5000
C#CCn1cnc2c(-c3cccc(O)c3)nc(N3CCOCC3)nc21 [Compound 53] | < 1000 | < 1000
CS(=O)(=O)Nc1cccc(Cn2cnc3c(-c4cccc(O)c4)nc(N4CCOCC4)nc32)c1 [Compound 55] | 1000 to 5000 | > 5000
CC(=O)Nc1cccc(-c2nc(N3CCOCC3)nc3c2ncn3-c2ccccc2)c1 [Compound 56] | > 5000 | > 5000
Oc1cccc(-c2nc(N3CCOCC3)nc3c2ncn3C2CCCCO2)c1 (stereo not shown) [Compound 57] | < 1000 | < 1000
c1ccc(Cn2cnc3c(-c4ccc5[nH]ccc5c4)nc(N4CCOCC4)nc32)cc1 [Compound 58] | > 5000 | 1000 to 5000
CC(C)(C)OC(=O)N1CCC(n2cnc3c(-c4cccc(O)c4)nc(N4CCOCC4)nc32)CC1 [Compound 71] |  | < 1000
CCOC(=O)Cn1cnc2c(-c3cccc(O)c3)nc(N3CCOCC3)nc21 [Compound 74, ethyl-2-(6-(3-hydroxyphenyl)-2-morpholino-9H-purin-9-yl)acetate] |  | < 1000
Oc1cccc(-c2nc(N3CCOCC3)nc3c2ncn3C2CCNCC2)c1 [Compound 85] |  | < 1000
CC(C)(C)OC(=O)N1CCC(n2cnc3c(-c4cccc(O)c4)nc(N4CCOCC4)nc32)CC1 [Compound 86] | < 1000 | 
CC(C)C(C)n1cnc2c(-c3cccc(O)c3)nc(N3CCOCC3)nc21 (stereo not shown) [Compound 100] |  | < 1000
